This passage reports DC50 and Dmax results from patent US11427548B2 (Arvinas Operations, Inc., priority 2015, dated 2022).

Read-outs that look alike come from different tables or passages of the source.

This assay deals with T1, Androgen Receptor (Homo sapiens, UniProt P10275).
T1 construct: endogenous in cells; host or cells: VCaP cells
T1 sequence (P10275 1-920): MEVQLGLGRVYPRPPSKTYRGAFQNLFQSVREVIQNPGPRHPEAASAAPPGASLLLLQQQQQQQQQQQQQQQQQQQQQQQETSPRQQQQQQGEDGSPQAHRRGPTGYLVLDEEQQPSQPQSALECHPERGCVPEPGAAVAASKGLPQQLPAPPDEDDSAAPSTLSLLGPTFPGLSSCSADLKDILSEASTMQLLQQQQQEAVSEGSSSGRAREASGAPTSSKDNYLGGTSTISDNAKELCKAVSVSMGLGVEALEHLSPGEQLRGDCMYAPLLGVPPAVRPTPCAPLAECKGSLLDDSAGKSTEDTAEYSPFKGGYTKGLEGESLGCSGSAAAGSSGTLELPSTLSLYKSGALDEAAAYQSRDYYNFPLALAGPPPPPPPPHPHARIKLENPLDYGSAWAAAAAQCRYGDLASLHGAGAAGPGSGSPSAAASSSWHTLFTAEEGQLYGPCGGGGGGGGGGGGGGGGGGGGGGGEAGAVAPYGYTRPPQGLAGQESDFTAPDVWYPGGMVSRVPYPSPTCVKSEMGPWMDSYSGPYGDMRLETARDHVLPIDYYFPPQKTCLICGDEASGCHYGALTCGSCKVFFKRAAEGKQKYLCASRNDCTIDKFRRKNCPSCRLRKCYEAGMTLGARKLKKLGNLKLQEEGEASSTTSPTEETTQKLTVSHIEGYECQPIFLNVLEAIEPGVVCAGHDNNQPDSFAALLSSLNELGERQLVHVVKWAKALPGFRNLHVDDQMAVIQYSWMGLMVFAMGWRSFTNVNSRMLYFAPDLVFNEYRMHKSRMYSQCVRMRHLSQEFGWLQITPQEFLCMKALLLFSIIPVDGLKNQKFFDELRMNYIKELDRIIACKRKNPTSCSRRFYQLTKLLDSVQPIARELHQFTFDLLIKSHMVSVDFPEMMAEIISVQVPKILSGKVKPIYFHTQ
In words: Androgen Receptor ELISA assay (PathScan AR ELISA) in VCaP cells: AR degradation, Dmax and DC50. The assay is classed as cell-based. The conditions noted are these: Table 35; for DC50: read-out: VCaP DC50; for Dmax: VCaP. The procedure, abridged:
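After 24 h exposure of VCaP cells (charcoal-stripped serum, 0.1 nM R1881 agonist, 0.1% DMSO) to seven half-log compound concentrations, residual AR in lysates was measured by PathScan ELISA (TMB absorbance, 450 nm). Cells were plated at 30,000/well and grown at least 3 days beforehand.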

[1] abbreviates: VCaP cells, read-out: VCaP Dmax (%).

With `Cc1ncsc1-c1ccc(CNC(=O)[C@@H]2C[C@@H](O)CN2C(=O)[C@@H](NC(=O)CNCCNc2ccc(-c3ccc(C(=O)N[C@H]4C(C)(C)[C@H](Oc5ccc(C#N)c(Cl)c5)C4(C)C)cc3)cn2)C(C)(C)C)cc1` [Example 484], for the setting “VCaP cells”, the DC50 was under 50 nM. Under setting [1], the Dmax fell in the range of 51 to 70%.
As for `Cc1ncsc1-c1ccc([C@H](C)NC(=O)[C@@H]2C[C@@H](O)CN2C(=O)[C@@H](NC(=O)COCCCCCNc2ccc(C(=O)N[C@H]3C(C)(C)[C@H](Oc4ccc(C#N)c(Cl)c4)C3(C)C)c(F)c2)C(C)(C)C)cc1` [Example 495], the DC50 (VCaP cells) was over 501 nM. The Dmax under setting [1] lay within 26 to 50%.
The corresponding values for `Cc1ncsc1-c1ccc([C@H](C)NC(=O)[C@@H]2C[C@@H](O)CN2C(=O)[C@@H](NC(=O)COCCCCCNc2ccc(C(=O)N[C@H]3C[C@H](Oc4ccc(C#N)c(Cl)c4)C3)cc2)C(C)(C)C)cc1` [Example 496] are under 50 nM and 51 to 70%.
The corresponding values for `Cc1ncsc1-c1ccc([C@H](C)NC(=O)[C@@H]2C[C@@H](O)CN2C(=O)[C@@H](NC(=O)COCCCCCNc2ccc(C(=O)N[C@H]3C(C)(C)[C@H](Oc4cnc(C#N)c(C(F)(F)F)c4)C3(C)C)cc2)C(C)(C)C)cc1` [Example 497] are under 50 nM and 51 to 70%.
Regarding `CC(C)(C)[C@H](NC(=O)CNc1ccc(C#Cc2ccc(C(=O)N[C@H]3C(C)(C)[C@H](Oc4ccc(C#N)c(Cl)c4)C3(C)C)cc2)cn1)C(=O)N1C[C@H](O)C[C@H]1C(=O)NCc1ccc(C#N)cc1` [Example 498], the DC50 (VCaP cells) is under 50 nM. The Dmax under setting [1] was over 71%.
The corresponding values for `CC(C)(C)[C@H](NC(=O)COCCCCCNc1ccc(C(=O)N[C@H]2C(C)(C)[C@H](Oc3ccc(C#N)c(Cl)c3)C2(C)C)cc1)C(=O)N1C[C@H](O)C[C@H]1C(=O)NCc1ccc(C2=CCNCC2)cc1` [Example 499] are over 501 nM and 26 to 50%.
The corresponding values for `CC(C)(C)[C@H](NC(=O)CNCCNc1ccc(-c2ccc(C(=O)N[C@H]3C(C)(C)[C@H](Oc4ccc(C#N)c(Cl)c4)C3(C)C)cc2)cn1)C(=O)N1C[C@H](O)C[C@H]1C(=O)NCc1ccc(C#N)cc1` [Example 500] are under 50 nM and 26 to 50%.
For `CC(C)(C)[C@H](NC(=O)CNCCOc1ccc(-c2ccc(C(=O)N[C@H]3C(C)(C)[C@H](Oc4ccc(C#N)c(Cl)c4)C3(C)C)cc2)cc1)C(=O)N1C[C@H](O)C[C@H]1C(=O)NCc1ccc(C#N)cc1` [Example 501] the same measures were under 50 nM and 51 to 70%.
`CC(C)(C)[C@H](NC(=O)COCCCCCNc1ccc(C(=O)N[C@H]2C(C)(C)[C@H](Oc3ccc(C#N)c(Cl)c3)C2(C)C)cc1)C(=O)N1C[C@H](O)C[C@H]1C(=O)NCc1ccc(-c2scnc2C(=O)O)cc1` [Example 502]: for the setting “VCaP cells”, the half-maximal degradation concentration (DC50) was 51 to 500 nM. For the same molecule, the Dmax under setting [1] is 26 to 50%.
For `CC(C)(C)[C@H](NC(=O)COCCCCCNc1ccc(C(=O)N[C@H]2C(C)(C)[C@H](Oc3ccc(C#N)c(Cl)c3)C2(C)C)cc1)C(=O)N1C[C@H](O)C[C@H]1C(=O)NCc1ccc(-c2scnc2N)cc1` [Example 503] the same measures were under 50 nM and over 71%.
With `CC(C)(C)[C@H](NC(=O)COCCCCCNc1ccc(C(=O)N[C@H]2C(C)(C)[C@H](Oc3ccc(C#N)c(Cl)c3)C2(C)C)cc1)C(=O)N1C[C@H](O)C[C@H]1C(=O)NCc1ccc(-c2ncns2)cc1` [Example 504], the DC50 (VCaP cells) was under 50 nM. In addition, the Dmax under setting [1] was in the range of 51 to 70%.
The corresponding values for `CC(C)(C)[C@H](NC(=O)COCCCCCNc1ccc(C(=O)N[C@H]2C(C)(C)[C@H](Oc3ccc(C#N)c(Cl)c3)C2(C)C)cc1)C(=O)N1C[C@H](O)C[C@H]1C(=O)NCc1ccc(-n2cnnn2)cc1` [Example 505] are under 50 nM and 26 to 50%.
For `CC(C)(C)[C@H](NC(=O)COCCCCCNc1ccc(C(=O)N[C@H]2C(C)(C)[C@H](Oc3ccc(C#N)c(Cl)c3)C2(C)C)cc1)C(=O)N1C[C@H](O)C[C@H]1C(=O)NCc1ccc(-n2ncnn2)cc1` [Example 506] the same measures were under 50 nM and 51 to 70%.
The corresponding values for `CNC(=O)[C@@H]1C[C@@H](O)CN1C(=O)[C@@H](NC(=O)COCCCCCOc1ccc(C(=O)N[C@H]2C(C)(C)[C@H](Oc3ccc(C#N)c(Cl)c3)C2(C)C)cc1)C(C)(C)C` [Example 507] are under 50 nM and 26 to 50%.
On to `CNCC(NC(=O)[C@@H]1C[C@@H](O)CN1C(=O)[C@@H](NC(=O)COCCCCCOc1ccc(C(=O)N[C@H]2C(C)(C)[C@H](Oc3ccc(C#N)c(Cl)c3)C2(C)C)cc1)C(C)(C)C)c1ccc(-c2scnc2C)cc1` (stereo partly drawn) [Example 508], for which, under “VCaP cells”, the DC50 is under 50 nM. Besides, the Dmax under setting [1] is over 71%.
The corresponding values for `CC(C)(C)[C@H](NC(=O)COCCCCCOc1ccc(C(=O)N[C@H]2C(C)(C)[C@H](Oc3ccc(C#N)c(Cl)c3)C2(C)C)cc1)C(=O)N1C[C@H](O)C[C@H]1C(=O)O` [Example 509] are 51 to 500 nM and 26 to 50%.
As for `COc1cc(C#N)ccc1CNC(=O)[C@@H]1C[C@@H](O)CN1C(=O)[C@@H](NC(=O)COCCCCCNc1ccc(C(=O)N[C@H]2C(C)(C)[C@H](Oc3ccc(C#N)c(Cl)c3)C2(C)C)cc1)C(C)(C)C` [Example 510], for the setting “VCaP cells”, the DC50 is under 50 nM. The Dmax under setting [1] fell in the range of 51 to 70%.
For `CNC(=O)c1ccc(CNC(=O)[C@@H]2C[C@@H](O)CN2C(=O)[C@@H](NC(=O)COCCCCCNc2ccc(C(=O)N[C@H]3C(C)(C)[C@H](Oc4ccc(C#N)c(Cl)c4)C3(C)C)cc2)C(C)(C)C)cc1` [Example 511] the same measures were under 50 nM and 51 to 70%.
The corresponding values for `CC(C)(C)[C@H](NC(=O)COCCCCCNc1ccc(C(=O)N[C@H]2C(C)(C)[C@H](Oc3ccc(C#N)c(Cl)c3)C2(C)C)cc1)C(=O)N1C[C@H](O)C[C@H]1C(=O)NCc1ccc(C(=O)O)cc1` [Example 512] are 51 to 500 nM and 51 to 70%.
The corresponding values for `Cc1ncsc1-c1ccc(CNC(=O)[C@@H]2C[C@@H](O)CN2C(=O)[C@@H](NC(=O)COCCNc2ccc(-c3c(F)cc(C(=O)N[C@H]4C(C)(C)[C@H](Oc5ccc(C#N)c(Cl)c5)C4(C)C)cc3F)cn2)C(C)(C)C)cc1` [Example 513] are under 50 nM and over 71%.
On to `CNC[C@@H](NC(=O)[C@@H]1C[C@@H](O)CN1C(=O)[C@@H](NC(=O)COCCCCCOc1ccc(C(=O)N[C@H]2C(C)(C)[C@H](Oc3ccc(C#N)c(Cl)c3)C2(C)C)cc1)C(C)(C)C)c1ccc(-c2scnc2C)cc1` [Example 514], for which, for the setting “VCaP cells”, the DC50 is over 501 nM. For the same molecule, the Dmax under setting [1] lay within 26 to 50%.
The corresponding values for `CNC[C@H](NC(=O)[C@@H]1C[C@@H](O)CN1C(=O)[C@@H](NC(=O)COCCCCCOc1ccc(C(=O)N[C@H]2C(C)(C)[C@H](Oc3ccc(C#N)c(Cl)c3)C2(C)C)cc1)C(C)(C)C)c1ccc(-c2scnc2C)cc1` [Example 515] are under 50 nM and over 71%.
Turning to `Cc1ncsc1-c1ccc(CNC(=O)[C@@H]2C[C@@H](O)CN2C(=O)[C@@H](NC(=O)COCCCCCNc2ccc(C(=O)N[C@H]3C(C)(C)[C@H](Oc4ccc(C#N)c(Cl)c4)C3(C)C)cc2)C(C)(C)C)cn1` [Example 516], where the note is “VCaP cells”, the DC50 is under 50 nM. In addition, the Dmax under setting [1] was over 71%.
For `C[C@H](NC(=O)[C@@H]1C[C@@H](O)CN1C(=O)[C@@H](NC(=O)COCCCCCNc1ccc(C(=O)N[C@H]2C(C)(C)[C@H](Oc3ccc(C#N)c(Cl)c3)C2(C)C)cc1)C(C)(C)C)c1ccc(-c2c[nH]nn2)cc1` [Example 517] the same measures were under 50 nM and over 71%.
In the case of `CC(C)(C)[C@H](NC(=O)COCCCCCNc1ccc(C(=O)N[C@H]2C(C)(C)[C@H](Oc3ccc(C#N)c(Cl)c3)C2(C)C)cc1)C(=O)N1C[C@H](O)C[C@H]1C(=O)NCc1ccc(-c2nnn[nH]2)cc1` [Example 518], for the setting “VCaP cells”, the DC50 is over 501 nM. Further, the Dmax (read-out: VCaP Dmax (%), VCaP cells) was under 25%.
As to `COC(=O)[C@@H]1C[C@@H](O)CN1C(=O)[C@@H](NC(=O)COCCCCCOc1ccc(C(=O)N[C@H]2C(C)(C)[C@H](Oc3ccc(C#N)c(Cl)c3)C2(C)C)cc1)C(C)(C)C` [Example 519], where the note is “VCaP cells”, the DC50 is under 50 nM. In addition, the Dmax under setting [1] lay in the range of 26 to 50%.
The corresponding values for `CC(C)[C@H](NC(=O)COCCCCCNc1ccc(C(=O)N[C@H]2C(C)(C)[C@H](Oc3ccc(C#N)c(Cl)c3)C2(C)C)cc1)C(=O)N1C[C@H](O)C[C@H]1C(=O)NCc1ccc(C#N)cc1` [Example 520] are over 501 nM and 26 to 50%.

In general, DC50 refers to the concentration at which degradation of the target reaches its halfway point. One may read the Dmax as the greatest extent of degradation seen.
